From patent US20070078085A1, “Methods and compositions for the utilization and targeting of osteomimicry” (priority 2004, published 2007) come the findings set out here.

The assay relates to CRE-nuclear protein (CREB) complexes. Nature of the assay: Electrophoretic mobility shift assay (EMSA) with 32P-labeled CRE probe and nuclear extracts of treated cells. In kind it is cell-based, human. Particulars: nuclear extracts of C4-2B cells; H-89 10^−6 M. As to the method: Electrophoretic Mobility Shift Assay (EMSA). A LNCaP-lineaged metastatic human prostate cancer cell line, C4-2B, and the human osteosarcoma cell line MG63 were plated in 15-cm diameter tissue culture dishes in T-medium (with 5% serum) until 80% confluence. Cells were then switched to 1-day complete serum-free condition and then treated with or without ARCaP CM (15 μg/ml) or FSK (10^−5 M) for an additional 16 h. Nuclear extracts were prepared from C4-2B and MG63 for EMSA as described by Ausubel et al (37). Briefly, cells were washed with cold PBS twice, harvested and homogenized in hypotonic buffer (10 mM HEPES, pH 7.9, 1.5 mM MgCl2, 10 mM KCl, 0.5 mM DTT and 0.2 mM PMSF). After centrifugation, the nuclear pellets were stirred and incubated for 30 min in high-salt buffer (20 mM HEPES, pH 7.9, 25% glycerol, 1.5 mM MgCl2, 1.2 M KCl, 0.2 mM EDTA, 0.5 mM DTT and 0.2 mM PMSF) on ice. The nuclear pellets were centrifuged, and the nuclear extract supernatants were dialyzed twice against dialysis buffer (20 mM HEPES, pH 7.9, 20% glycerol, 100 mM KCl, 0.2 mM EDTA, 0.5 mM DTT and 0.2 mM PMSF) overnight. The concentration of nuclear proteins was determined by the Bradford method using Coomassie plus protein reagent (Pierce). Synthetic oligonucleotides were purified by PAGE. Appropriate pairs were annealed by heating up to 95° C. for 10 min and naturally cooled down to room temperature. […]
On the technique in general: Mobility shift assays separate free from complexed probe on a gel.

Take `O=S(=O)(NCCNCC=Cc1ccc(Br)cc1)c1cccc2cnccc12` [H-89, N-[2-(p-bromocinnamylamino)ethyl]-5-isoquinolinesulfonamide]: the “ARCaP CM- and FSK-induced CRE binding to nuclear proteins” value is “abolish”.
